Test system: 991263-137-R1-J2-PDC complex spheroid viability
Test: Anticancer human tumor 991263-137-R1-J2-PDC patient-derived colon adenocarcinoma cell line growth inhibition [POLQ]
Details: for IC50: curve of first compound; for viability, T/C: stronger effect = lower value
In short: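 Growth inhibition in 3D: complex spheroids (tumor PDC, HUVEC, MSC) treated with POLQ inhibitor combinations; where Cmax unknown, highest tested concentration 10 microM, except SN-38 at 1 microM.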

[1] = second compound 0.0316 µM, first compound 0.0316 µM
[2] = second compound 0.0316 µM, first compound 0.1 µM
[3] = second compound 0.0316 µM, first compound 0.316 µM
[4] = second compound 0.0316 µM, first compound 1 µM
[5] = second compound 0.0316 µM, first compound 3.16 µM
[6] = second compound 0.0316 µM, first compound 10 µM
[7] = second compound 0.1 µM, first compound 0.0316 µM
[8] = second compound 0.1 µM, first compound 0.1 µM
[9] = second compound 0.1 µM, first compound 0.316 µM
[10] = second compound 0.1 µM, first compound 1 µM
[11] = second compound 0.1 µM, first compound 3.16 µM
[12] = second compound 0.1 µM, first compound 10 µM
[13] = second compound 0.316 µM, first compound 0.0316 µM
[14] = second compound 0.316 µM, first compound 0.1 µM
[15] = second compound 0.316 µM, first compound 0.316 µM
[16] = second compound 0.316 µM, first compound 1 µM
[17] = second compound 0.316 µM, first compound 3.16 µM
[18] = second compound 0.316 µM, first compound 10 µM
[19] = second compound 1 µM, first compound 0.0316 µM
[20] = second compound 1 µM, first compound 0.1 µM
[21] = second compound 1 µM, first compound 0.316 µM
[22] = second compound 1 µM, first compound 1 µM
[23] = second compound 1 µM, first compound 3.16 µM
[24] = second compound 1 µM, first compound 10 µM
[25] = second compound 3.16 µM, first compound 0.0316 µM
[26] = second compound 3.16 µM, first compound 0.1 µM
[27] = second compound 3.16 µM, first compound 0.316 µM
[28] = second compound 3.16 µM, first compound 1 µM
[29] = second compound 3.16 µM, first compound 3.16 µM
[30] = second compound 3.16 µM, first compound 10 µM
[31] = second compound 10 µM, first compound 0.0316 µM
[32] = second compound 10 µM, first compound 0.1 µM
[33] = second compound 10 µM, first compound 0.316 µM
[34] = second compound 10 µM, first compound 1 µM
[35] = second compound 10 µM, first compound 3.16 µM
[36] = second compound 10 µM, first compound 10 µM
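Also: spheroids exposed to compounds for 7 days before readout.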
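For viability, T/C in this document: 100% = DMSO vehicle control viability.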

Molecule `C=CC(=O)N1CCN(c2nc(=O)n(-c3c(C)ccnc3C(C)C)c3nc(-c4c(O)cccc4F)c(F)cc23)C(C)C1` (stereo unspecified) + COC1C(OC(N)=O)C(O)C(Oc2ccc3c(O)c(NC(=O)c4ccc(O)c(CC=C(C)C)c4)c(=O)oc3c2C)OC1(C)C has an IC50 (second compound 0.0316 µM) of over 10000 nM, an IC50 (second compound 0.1 µM) of over 10000 nM and an IC50 (second compound 0.316 µM) of over 10000 nM. For the same molecule, the IC50 (second compound 1 µM) was over 10000 nM, the IC50 (second compound 3.16 µM) was over 10000 nM and the IC50 (second compound 10 µM) was over 10000 nM. For the same molecule, the viability, T/C [1] was 114%, the viability, T/C [2] was 123% and the viability, T/C [3] was 115%. It also gave a viability, T/C [4] of 103%, a viability, T/C [5] of 104% and a viability, T/C [6] of 93.3%. It also gave a viability, T/C [7] of 108%, a viability, T/C [8] of 129% and a viability, T/C [9] of 115%. It also gave a viability, T/C [10] of 115%, a viability, T/C [11] of 114% and a viability, T/C [12] of 95.5%. It also gave a viability, T/C [13] of 115%, a viability, T/C [14] of 124% and a viability, T/C [15] of 109%. It also gave a viability, T/C [16] of 98.8%, a viability, T/C [17] of 133% and a viability, T/C [18] of 99.9%. It also gave a viability, T/C [19] of 107%, a viability, T/C [20] of 106% and a viability, T/C [21] of 110%. It also gave a viability, T/C [22] of 120%, a viability, T/C [23] of 115% and a viability, T/C [24] of 119%. For the same molecule, the viability, T/C [25] was 98.8%, the viability, T/C [26] was 110% and the viability, T/C [27] was 109%. For the same molecule, the viability, T/C [28] was 114%, the viability, T/C [29] was 104% and the viability, T/C [30] was 122%. For the same molecule, the viability, T/C [31] was 88.3%, the viability, T/C [32] was 124% and the viability, T/C [33] was 123%. It also gave a viability, T/C [34] of 109%, a viability, T/C [35] of 117% and a viability, T/C [36] of 104%.

`CC(=O)O[C@H]1C(=O)[C@@]2(C)[C@H]([C@H](OC(=O)c3ccccc3)[C@]3(O)C[C@H](OC(=O)[C@H](O)[C@@H](NC(=O)c4ccccc4)c4ccccc4)C(C)=C1C3(C)C)[C@]1(OC(C)=O)CO[C@@H]1C[C@@H]2O` + Cc1cccc(N(C)C(=O)C2C(O)CCN2c2nc(C)cc(C(F)(F)F)c2C#N)c1 was tested, and the IC50 (second compound 0.0316 µM) was 1360 nM, the IC50 (second compound 0.1 µM) was 1830 nM and the IC50 (second compound 0.316 µM) was 1040 nM. The IC50 (second compound 1 µM) was 825 nM, the IC50 (second compound 3.16 µM) was 1510 nM and the IC50 (second compound 10 µM) was 295 nM. For the same molecule, the viability, T/C (second compound 0.0316 µM, first compound 0.00949 µM) was 80.4%, the viability, T/C (second compound 0.0316 µM, first compound 0.03 µM) was 85.6% and the viability, T/C (second compound 0.0316 µM, first compound 0.0949 µM) was 85.2%. For the same molecule, the viability, T/C (second compound 0.0316 µM, first compound 0.3 µM) was 67.5%, the viability, T/C (second compound 0.0316 µM, first compound 0.949 µM) was 53.2% and the viability, T/C (second compound 0.0316 µM, first compound 3 µM) was 46.1%. It also gave a viability, T/C (second compound 0.1 µM, first compound 0.00949 µM) of 93.4%, a viability, T/C (second compound 0.1 µM, first compound 0.03 µM) of 92.5% and a viability, T/C (second compound 0.1 µM, first compound 0.0949 µM) of 84.2%. It also gave a viability, T/C (second compound 0.1 µM, first compound 0.3 µM) of 74%, a viability, T/C (second compound 0.1 µM, first compound 0.949 µM) of 57.9% and a viability, T/C (second compound 0.1 µM, first compound 3 µM) of 44%. For the same molecule, the viability, T/C (second compound 0.316 µM, first compound 0.00949 µM) was 85.8%, the viability, T/C (second compound 0.316 µM, first compound 0.03 µM) was 86.3% and the viability, T/C (second compound 0.316 µM, first compound 0.0949 µM) was 83.4%. It also gave a viability, T/C (second compound 0.316 µM, first compound 0.3 µM) of 74.1%, a viability, T/C (second compound 0.316 µM, first compound 0.949 µM) of 50.1% and a viability, T/C (second compound 0.316 µM, first compound 3 µM) of 46.1%. For the same molecule, the viability, T/C (second compound 1 µM, first compound 0.00949 µM) was 82.6%, the viability, T/C (second compound 1 µM, first compound 0.03 µM) was 89.2% and the viability, T/C (second compound 1 µM, first compound 0.0949 µM) was 85%. It also gave a viability, T/C (second compound 1 µM, first compound 0.3 µM) of 63.2%, a viability, T/C (second compound 1 µM, first compound 0.949 µM) of 51.3% and a viability, T/C (second compound 1 µM, first compound 3 µM) of 42.8%. It also gave a viability, T/C (second compound 3.16 µM, first compound 0.00949 µM) of 87.3%, a viability, T/C (second compound 3.16 µM, first compound 0.03 µM) of 79.5% and a viability, T/C (second compound 3.16 µM, first compound 0.0949 µM) of 80.7%. The viability, T/C (second compound 3.16 µM, first compound 0.3 µM) was 63.8%, the viability, T/C (second compound 3.16 µM, first compound 0.949 µM) was 56% and the viability, T/C (second compound 3.16 µM, first compound 3 µM) was 42.1%. For the same molecule, the viability, T/C (second compound 10 µM, first compound 0.00949 µM) was 79.9%, the viability, T/C (second compound 10 µM, first compound 0.03 µM) was 88.4% and the viability, T/C (second compound 10 µM, first compound 0.0949 µM) was 69.5%. The viability, T/C (second compound 10 µM, first compound 0.3 µM) was 51.6%, the viability, T/C (second compound 10 µM, first compound 0.949 µM) was 50.7% and the viability, T/C (second compound 10 µM, first compound 3 µM) was 46.7%.

In the case of `COc1cccc2c1C(=O)c1c(O)c3c(c(O)c1C2=O)CC(O)(C(=O)CO)CC3OC1CC(N)C(O)C(C)O1` (stereo unspecified) + COC1C(OC(N)=O)C(O)C(Oc2ccc3c(O)c(NC(=O)c4ccc(O)c(CC=C(C)C)c4)c(=O)oc3c2C)OC1(C)C, the IC50 (second compound 0.0316 µM) is reported as 1540 nM, the IC50 (second compound 0.1 µM) is reported as 1210 nM and the IC50 (second compound 0.316 µM) is reported as 1180 nM. The IC50 (second compound 1 µM) was 1130 nM, the IC50 (second compound 3.16 µM) was 1600 nM and the IC50 (second compound 10 µM) was 1030 nM. The viability, T/C [1] was 116%, the viability, T/C [2] was 101% and the viability, T/C [3] was 93.3%. It also gave a viability, T/C [4] of 55.7%, a viability, T/C [5] of 38.1% and a viability, T/C [6] of 31.1%. The viability, T/C [7] was 104%, the viability, T/C [8] was 115% and the viability, T/C [9] was 92.5%. The viability, T/C [10] was 51.9%, the viability, T/C [11] was 45.1% and the viability, T/C [12] was 34.9%. For the same molecule, the viability, T/C [13] was 107%, the viability, T/C [14] was 116% and the viability, T/C [15] was 76%. For the same molecule, the viability, T/C [16] was 55.4%, the viability, T/C [17] was 43.1% and the viability, T/C [18] was 33.1%. For the same molecule, the viability, T/C [19] was 101%, the viability, T/C [20] was 120% and the viability, T/C [21] was 93.1%. For the same molecule, the viability, T/C [22] was 51.5%, the viability, T/C [23] was 39.6% and the viability, T/C [24] was 27.4%. For the same molecule, the viability, T/C [25] was 109%, the viability, T/C [26] was 109% and the viability, T/C [27] was 92.2%. For the same molecule, the viability, T/C [28] was 56.6%, the viability, T/C [29] was 41.9% and the viability, T/C [30] was 31.8%. It also gave a viability, T/C [31] of 88.1%, a viability, T/C [32] of 106% and a viability, T/C [33] of 102%. It also gave a viability, T/C [34] of 50.1%, a viability, T/C [35] of 56.2% and a viability, T/C [36] of 33.9%.

Reference: PubChem BioAssay AID1963828 (Molecular Pharmacology Branch, DTP, NCI, 2024)
